Legend:
NCI-H460 = test: Cytotoxic effect on human NCI-H460 lung cancer cell line as percentage growth after inoculation at 10e-4 M; format: functional
SF-268 = test: Cytotoxic effect on human SF-268 glioma cancer cell line as percentage growth after inoculation at 10e-4 M; format: functional
MCF7 = test: Cytotoxic effect on human MCF-7 breast cancer cell line as percentage growth at 10e-4 M; format: functional
[1] = biological target: Cyclin-dependent kinase 1/cyclin B (Homo sapiens, UniProt P06493); test: Inhibition of Cyclin-dependent kinase 1-cyclin B; format: protein-complex assay
[2] = test system: Panel CNS (Carcinoma cell lines); test: Cytostatic effect on human CNS tumor cell lines; format: functional
[3] = Cytostatic effect on 60 human tumor cell line panel, MG-MID represents mean value; format: functional
[4] = test system: Panel leukemia (Carcinoma cell lines); test: Inhibition of proliferation in NCI human leukemia tumor cell lines; format: functional
NSCLC [5] = test: Inhibition of proliferation in NCI human non-small cell lung tumor cell lines; format: functional
[6] = test system: Panel CNS (Carcinoma cell lines); test: Cytotoxic effect on human CNS tumor cell lines; format: functional
[7] = test system: Panel ovarian (Carcinoma cell lines); test: Cytotoxic effect on human ovarian tumor cell lines; format: functional
NSCLC [8] = test: Cytostatic effect on human non-small cell lung carcinoma tumor cell lines; format: functional
[9] = test system: Panel leukemia (Carcinoma cell lines); test: Cytotoxic effect on human leukemia tumor cell lines; format: functional
[10] = test system: Panel leukemia (Carcinoma cell lines); test: Cytostatic effect on human leukemia tumor cell lines; format: functional
[11] = test system: Panel melanoma (Carcinoma cell lines); test: Cytotoxic effect on human melanoma tumor cell lines; format: functional
[12] = Inhibition of proliferation in NCI 60 human tumor cell line panel, MG-MID represents mean value; format: functional
[13] = test system: Panel renal (Carcinoma cell lines); test: Inhibition of proliferation in NCI human renal tumor cell lines; format: functional
[14] = test system: Panel ovarian (Carcinoma cell lines); test: Cytostatic effect on human ovarian tumor cell lines; format: functional
[15] = test system: Panel breast (Carcinoma cell lines); test: Inhibition of proliferation in NCI human breast tumor cell lines; format: functional
[16] = test system: Panel colon (Carcinoma cell lines); test: Cytostatic effect on human colon tumor cell lines; format: functional
[17] = test system: Panel breast (Carcinoma cell lines); test: Cytotoxic effect on human breast tumor cell lines; format: functional
[18] = test system: Panel melanoma (Carcinoma cell lines); test: Inhibition of proliferation in NCI human melanoma tumor cell lines; format: functional
[19] = test system: Panel breast (Carcinoma cell lines); test: Cytostatic effect on human breast tumor cell lines; format: functional
[20] = test system: Panel prostate (Carcinoma cell lines); test: Inhibition of proliferation in NCI human prostate tumor cell lines; format: functional
[21] = test system: Panel prostate (Carcinoma cell lines); test: Cytostatic effect on human prostate tumor cell lines; format: functional
[22] = test system: Panel colon (Carcinoma cell lines); test: Cytotoxic effect on human colon tumor cell lines; format: functional
[23] = test system: Panel colon (Carcinoma cell lines); test: Inhibition of proliferation in NCI human colon tumor cell lines; format: functional
[24] = test system: Panel renal (Carcinoma cell lines); test: Cytostatic effect on human renal tumor cell lines; format: functional
[25] = Cytotoxic effect on 60 human tumor cell line panel, MG-MID represents mean value; format: functional
[26] = test system: Panel CNS (Carcinoma cell lines); test: Inhibition of proliferation in NCI human CNS tumor cell lines; format: functional
[27] = test system: Panel renal (Carcinoma cell lines); test: Cytotoxic effect on human renal tumor cell lines; format: functional
[28] = test system: Panel ovarian (Carcinoma cell lines); test: Inhibition of proliferation in NCI human ovarian tumor cell lines; format: functional
[29] = test system: Panel melanoma (Carcinoma cell lines); test: Cytostatic effect on human melanoma tumor cell lines; format: functional
[30] = test system: Panel prostate (Carcinoma cell lines); test: Cytotoxic effect on human prostate tumor cell lines; format: functional

Row | SMILES | Growth (NCI-H460) [%] | Growth (SF-268) [%] | Growth (MCF7) [%] | logTGI [2] | logTGI [3] | GI50 [4] [nM] | GI50 (NSCLC [5]) [nM] | LC50 [6] | LC50 [7] | logTGI (NSCLC [8]) [log M] | LC50 [9] | logTGI [10] | LC50 [11] | GI50 [12] [nM] | GI50 [13] [nM] | GI50 [15] [nM] | logTGI [16] | GI50 [18] [nM] | logTGI [19] | GI50 [20] [nM] | also measured
1 | COc1ccc2[nH]c(Cl)c(/C=C3/C(=O)N(c4ccccc4)c4ccccc43)c2c1 | 2 | 15 | 3 | – | – | – | – | – | – | – | – | – | – | – | – | – | – | – | – | – | –
2 | COc1ccc2c(c1)/C(=C\c1c(Cl)n(-c3ccccc3)c3ccccc13)C(=O)N2 | -28 | 12 | -6 | – | – | – | – | – | – | – | – | – | – | – | – | – | – | – | – | – | –
3 | O=C1/C(=C/c2c(Cl)[nH]c3ccccc23)c2ccccc2N1c1ccccc1 | -1 | 6 | -3 | – | – | – | – | – | – | – | – | – | – | – | – | – | – | – | – | – | –
4 | COc1ccc2[nH]c(Cl)c(/C=C3/C(=O)Nc4cc(C)c(OC)cc43)c2c1 | -23 | -54 | -23 | – | – | – | – | – | – | – | – | – | – | – | – | – | – | – | – | – | IC50 [1]: 30000 nM
5 | COc1cc2c(cc1C)NC(=O)/C2=C/c1c(Cl)[nH]c2cc(C)c(OC)cc12 | -63 | -67 | -51 | -5.3 log M | -4.8 log M | 501 | 3160 | -4.6 | -4.4 | -4.8 | -4.2 | -4.8 log M | -4.3 | 2000 | 2510 | 2510 | -4.7 log M | 3160 | -4.7 log M | 1260 | TGI [14]: -4.9 log10 M; LC50 [17]: -4.1; logTGI [21]: -4.9 log M; LC50 [22]: -4.2; GI50 [23]: 3980 nM; logTGI [24]: -4.8 log M; LC50 [25]: -4.3; GI50 [26]: 631 nM; LC50 [27]: -4.3; GI50 [28]: 2000 nM; TGI [29]: -4.8 log10 M; LC50 [30]: -4.4
6 | O=C1Nc2ccccc2/C1=C\c1c(Cl)n(-c2ccccc2)c2ccccc12 | -16 | -17 | 8 | – | – | – | – | – | – | – | – | – | – | – | – | – | – | – | – | – | –
7 | COc1cc2c(cc1C)NC(=O)/C2=C/c1c(Cl)[nH]c2ccccc12 | -35 | -48 | -35 | – | – | – | – | – | – | – | – | – | – | – | – | – | – | – | – | – | IC50 [1]: 20000 nM
8 | COc1cc2c(cc1C)NC(=O)/C2=C/c1c(Cl)n(-c2ccccc2)c2ccccc12 | 5 | 51 | 8 | – | – | – | – | – | – | – | – | – | – | – | – | – | – | – | – | – | –
9 | COc1ccc2c(c1)/C(=C\c1c(Cl)[nH]c3cc(C)c(OC)cc13)C(=O)N2 | -48 | -44 | -54 | -5.2 log M | -5 log M | 501 | 2510 | -4.7 | -4.3 | -4.8 | -4.2 | -5.1 log M | -4.5 | 1000 | 2000 | 1000 | -5 log M | 1000 | -5 log M | 1260 | logTGI [14]: -5.3 log M; logTGI [21]: -5.1 log M; LC50 [22]: -4.4; GI50 [23]: 1000 nM; logTGI [24]: -4.8 log M; LC50 [25]: -4.3; GI50 [26]: 794 nM; LC50 [27]: -4.3; GI50 [28]: 794 nM; logTGI [29]: -5 log M; LC50 [30]: -4.4
10 | CC[C@]1(O)C[C@H]2CN(CCc3c([nH]c4ccccc34)[C@@](C(=O)OC)(c3cc4c(cc3OC)N(C=O)[C@H]3[C@@](O)(C(=O)OC)[C@H](OC(C)=O)[C@]5(CC)C=CCN6CC[C@]43[C@@H]65)C2)C1.O=S(=O)(O)O [VINCRISTINE SULFATE] | – | – | – | -5.2 | -5 | 100 | 251 | -3.7 | -3.5 | -4.8 | -3.2 | -4.8 | -3.6 | 200 | 316 | 316 | -5.4 | 158 | -5.1 | 126 | logTGI [14]: -4.7; LC50 [17]: -3.5; logTGI [21]: -5.2; LC50 [22]: -4.1; GI50 [23]: 100 nM; logTGI [24]: -4.7; LC50 [25]: -3.6; GI50 [26]: 126 nM; LC50 [27]: -3.6; GI50 [28]: 316 nM; logTGI [29]: -5.1 log M; LC50 [30]: -3.5
11 | COc1cc2c(/C=C3/C(=O)N(C)c4ccccc43)c(Cl)[nH]c2cc1C | -18 | -1 | 4 | -5.6 log M | -4.9 log M | 251 | 794 | -4.5 | -4.3 | -5 | -4 | -4.6 log M | -4 | 398 | 2000 | 158 | -5 log M | 631 | -5.1 log M | 398 | logTGI [14]: -5.2 log M; logTGI [21]: -4.7 log M; LC50 [22]: -4.2; GI50 [23]: 316 nM; logTGI [24]: -4.2 log M; LC50 [25]: -4.1; GI50 [26]: 200 nM; LC50 [27]: -4; GI50 [28]: 316 nM; logTGI [29]: -4.6 log M; LC50 [30]: -4
12 | COc1cc2c(cc1C)NC(=O)/C2=C/c1c(Cl)n(C)c2ccccc12 | -50 | -14 | 3 | – | – | – | – | – | – | – | – | – | – | – | – | – | – | – | – | – | –
13 | O=C1Nc2ccccc2/C1=C\c1c(Cl)[nH]c2ccc(O)cc12 | -82 | -34 | -69 | – | – | – | – | – | – | – | – | – | – | – | – | – | – | – | – | – | IC50 [1]: 30000 nM
14 | COc1cc2c(/C=C3/C(=O)Nc4ccccc43)c(Cl)[nH]c2cc1C | -39 | -30 | -54 | -5.6 log M | -5 log M | 63.1 | 126 | -4.4 | -4.4 | -4.7 | -4.1 | -4.7 log M | -4.6 | 100 | 200 | 100 | -5.1 log M | 126 | -5.3 log M | 126 | logTGI [14]: -5.2 log M; logTGI [21]: -4.8 log M; LC50 [22]: -4.6; GI50 [23]: 79.4 nM; logTGI [24]: -4.7 log M; LC50 [25]: -4.3; GI50 [26]: 79.4 nM; LC50 [27]: -4.3; GI50 [28]: 79.4 nM; logTGI [29]: -5 log M; LC50 [30]: -4.4
15 | COc1cc2c(/C=C3/C(=O)N(c4ccccc4)c4ccccc43)c(Cl)[nH]c2cc1C | -10 | 1 | 1 | -4.7 log M | -4.7 log M | 2510 | 3160 | -4.2 | -4.3 | -4.5 | -4 | -4.4 log M | -4.3 | 3160 | 3980 | 2510 | -4.7 log M | 3160 | -5 log M | 3160 | logTGI [14]: -4.8 log M; logTGI [21]: -4.9 log M; LC50 [22]: -4.2; GI50 [23]: 2510 nM; logTGI [24]: -4.4 log M; LC50 [25]: -4.1; GI50 [26]: 3160 nM; LC50 [27]: -4.1; GI50 [28]: 2510 nM; logTGI [29]: -4.9 log M; LC50 [30]: -4
